The text below walks through data of patent US12065648B2, “Methods and compositions for inhibiting detoxification response” (priority 2015, dated 2024).

Data set [1] deals with haf-7 transcriptional GFP fusion gene. The experiment in a line: Transcriptional GFP fusion gene induction: haf-7. Particulars: n = 20. The class given is in vivo, C. elegans. As to the method: (§1) G418 (GoldBio) or hygromycin (GoldBio) was diluted in M9 to the desired concentration and added onto preseeded OP50 E. coli bacteria containing NGM plates. The plates were dried uncovered in the hood for at least 1 hour before seeding the worms. For the drug experiments, synchronized L1-stage animals were dropped onto the drug containing plates and scored later. For drug resistance assays synchronized L1 larval stage animals of the appropriate genotype were fed with either control RNAi or with RNAi clones targeting bile acid biosynthetic pathways until they reach day two of adulthood. Subsequently, the RNAi-treated animals were egg-prepped to obtain synchronized L1 larvae. ˜100 L1 larvae were added to the plates containing G418. 100 nM of Δ^4-Dafachronic Acid or (25S)-Δ^7-Dafachronic Acid from Cayman Chemical were used.
(§2) Nematodes were mounted onto agar pads and images were taken using a Zeiss AXIO Imager Z1 microscope fitted with a Zeiss AxioCam HRm camera and Axiovision 4.6 (Zeiss) software. Fluorescent images were converted to 16-bit images, thresholded and quantified using ImageJ. Student's t test was used determine statistical significance. […]

The test system of data set [2] is ugt-61 transcriptional GFP fusion gene. The experiment in a line: Transcriptional GFP fusion gene induction: ugt-61. It is filed as in vivo, C. elegans. To be noted: n = 20. The procedure: as §1, §2
Data set [3] concerns pgp-3 transcriptional GFP fusion gene. The experiment in a line: Transcriptional GFP fusion gene induction: pgp-3. It is filed as in vivo, C. elegans. Particulars: n = 20. As to the method:
as §1, §2

The subject of data set [4] is mrp-2 transcriptional GFP fusion gene. The data set can be described thus: Transcriptional GFP fusion gene induction: mrp-2. It is filed as in vivo, C. elegans. Particulars: n = 20. As to the method: as §1, §2
The subject of data set [5] is abch-1 transcriptional GFP fusion gene. The experiment in a line: Transcriptional GFP fusion gene induction: abch-1. The class given is in vivo, C. elegans. Particulars: n = 20. The procedure: as §1, §2
For data set [6], the system named is pmp-4 transcriptional GFP fusion gene. The experiment in a line: Transcriptional GFP fusion gene induction: pmp-4. The class given is in vivo, C. elegans. Particulars: n = 20.
Data set [7] deals with ugt-58 transcriptional GFP fusion gene. The experiment in a line: Transcriptional GFP fusion gene induction: ugt-58. It is filed as in vivo, C. elegans. To be noted: n = 20. As to the method:
as §1, §2

The test system of data set [8] is dhs-9 transcriptional GFP fusion gene. The data set can be described thus: Transcriptional GFP fusion gene induction: dhs-9. The class given is in vivo, C. elegans. Particulars: n = 20. The procedure: as §1, §2
Data set [9] deals with cyp-13a7 transcriptional GFP fusion gene. The class given is in vivo, C. elegans. To be noted: n = 20. As to the method: as §1
(§3) Nematodes were mounted onto agar pads and images were taken using a Zeiss AXIO Imager Z1 microscope fitted with a Zeiss AxioCam HRm camera and Axiovision 4.6 (Zeiss) software. Fluorescent images were converted to 16-bit images, thresholded and quantified using ImageJ. Student's t test was used determine statistical significance.
(§4) Inactivation of C. elegans translation components by feeding the animals E. coli expressing specific dsRNAs targeting translation factor mRNAs induces the expression of xenobiotic detoxification genes, bacterial pathogen response genes, and aversion behavior2-4 (FIG. 1A-C; Table 1, 2 and 3). Toxins, such as the eukaryotic translation inhibitors G418 produced by the bacteria Micromonospora rhodorangea5 or hygromycin, produced by the soil bacteria Streptomyces hygroscopicus6 also induce these responses.
(§5) Detoxification responses in animals include, cytochrome P450's (CYPs), UDP-glucuronosyltransferases (UGTs), glutathione S-transferases (GSTs), and p-glycoprotein transporters (PGPs) (FIGS. 1A & 1C; FIG. 6 A-B; Table 1, 2 and 3). We chose a pgp-5::gfp fusion gene for assays of xenobiotic detoxification induction in response to G418 or hygromycin or ribosomal assaults via RNAi (FIGS. 1A & C; FIG. 6 A-B; Table 1, 2 and 3) because of the robust response of this reporter gene and validation of this gene induction from microarray gene expression analysis in response to translational inhibition by toxins or RNAi4.

Data set [10] relates to cyp-14A3 transcriptional GFP fusion gene. The class given is in vivo, C. elegans. Particulars: n = 20. As to the method:
as §1, §3, §4, §5

Data set [11] deals with cyp-25a2 transcriptional GFP fusion gene. The class given is in vivo, C. elegans. To be noted: n = 20. As to the method: as §1, §3, §4, §5
For data set [12], the system named is cyp-31a3 transcriptional GFP fusion gene. The class given is in vivo, C. elegans. Particulars: n = 20. The procedure: as §1, §3, §4, §5
The test system of data set [13] is cyp-34A9 transcriptional GFP fusion gene. The class given is in vivo, C. elegans. Particulars: n = 20. As to the method:
as §1, §3, §4, §5

Data set [14] concerns cyp-35B1 transcriptional GFP fusion gene. It is filed as in vivo, C. elegans. To be noted: n = 20. The procedure:
as §1, §3, §4, §5

For data set [15], the system named is cyp-37A1 transcriptional GFP fusion gene. It is filed as in vivo, C. elegans. Particulars: n = 20. As to the method: as §1, §3, §4, §5
The test system of data set [16] is dhs-19 transcriptional GFP fusion gene. The experiment in a line: Transcriptional GFP fusion gene induction: dhs-19. It is filed as in vivo, C. elegans. To be noted: n = 20. The procedure:
as §1, §2

The subject of data set [17] is ugt-8 transcriptional GFP fusion gene. The experiment in a line: Transcriptional GFP fusion gene induction: ugt-8. It is filed as in vivo, C. elegans. Particulars: n = 20. As to the method:
as §1, §2

Data set [18] deals with pgp-4 transcriptional GFP fusion gene. The experiment in a line: Transcriptional GFP fusion gene induction: pgp-4. The class given is in vivo, C. elegans. To be noted: n = 20.
The subject of data set [19] is pgp-6 transcriptional GFP fusion gene. The experiment in a line: Transcriptional GFP fusion gene induction: pgp-6. The class given is in vivo, C. elegans. To be noted: n = 20. As to the method: as §1, §2
Data set [20] concerns ugt-22 transcriptional GFP fusion gene. The experiment in a line: Transcriptional GFP fusion gene induction: ugt-22. It is filed as in vivo, C. elegans. To be noted: n = 20. The procedure: as §1, §2
In data set [21] the test system is pgp-9 transcriptional GFP fusion gene. The data set can be described thus: Transcriptional GFP fusion gene induction: pgp-9. To be noted: n = 20. It is filed as in vivo, C. elegans. As to the method:
as §1, §2

Data set [22] deals with pgp-5::gfp. The data set can be described thus: pgp-5::gfp induction in animals without germline translation mutation (toxin, RNAi, bile acids, lipid extracts). The class given is in vivo, C. elegans. Particulars: pgp-5 transcriptional GFP fusion gene; n = 20. The procedure:
as §1
Nematodes were mounted onto agar pads and images were taken using a Zeiss AXIO Imager Z1 microscope fitted with a Zeiss AxioCam HRm camera and Axiovision 4.6 (Zeiss) software. Fluorescent images were converted to 16-bit images, thresholded and quantified using ImageJ. […]
RNAi bacteria expressing the dsRNA corresponding to each worm gene were grown in LB media with 25 μg/ml carbenicillin overnight and seeded onto RNAi agar plates containing 1 mM IPTG. […] In the primary screen, the plates were screened visually for changes in GFP fluorescence and worm developmental defects. […]

Data set [23] has as its system C. elegans. The experiment in a line: Drug resistance assay (G418 or hygromycin) after RNAi. The class given is in vivo. To be noted: control RNAi treated wildtype animals; 0.2 mg/ml G418. As to the method:
as §1

Data set [24] has as its system pgp-5::gfp. The data set can be described thus: pgp-5::gfp induction in germline translation-defective eft-3(q145);pgp-5::gfp strain (RNAi, bile acid rescue, microbes). It is filed as in vivo, C. elegans. To be noted: bile acids at 100 uM.
From the text: Secondary screens were similarly done on the eft-3(q145):pgp-5::gfp strain.
To explore the types of lipids that the dhs-28. daf-22 pathway generates to regulate the induction of pgp-5::gfp expression in translation-defective animals, we tested whether defects in CAs-28 or daf-22-mediated lipid/bile acid biosynthesis could be rescued for pgp-5::gfp induction by addition of purified mammalian bile acids (FIG. 9B). […] These bile acids preparations are 95% pure.
In data set [25] the test system is C. elegans. The data set can be described thus: Effect of microbes on C. elegans growth. It is filed as in vivo. To be noted: C. elegans grown on the microbe. The procedure:
16S ribosomal sequence was amplified using specific primers and sequenced to identify the microbes. BHI media as well as plates was used for culturing and testing the effect of Enterococcus faecalis and E. faecium on worms. For Saccharomyces boulardi, YPD media was used for growing the yeast and a concentrated culture was added to SK media. For Lactobacillus spp, Lactobacilli broth was used for growing and then a concentrated culture was added to SK media. SK media was used for all the other microbes.
Many of the bacterial strains allowed normal growth of C. elegans, but some caused developmental arrest, perhaps due to toxins or virulence factors that disrupt essential C. elegans processes.

Consider `CN[C@@H]1[C@@H](O)[C@@H](O[C@@H]2[C@@H](O)[C@H](O[C@H]3O[C@H]([C@@H](C)O)[C@@H](O)[C@H](O)[C@H]3N)[C@@H](N)C[C@H]2N)OC[C@]1(C)O` [G418], for which the “% Animals with gfp induction” value is recorded as 0 (n = 20) % in data set [1]; 0 (n = 20) % in data set [2]; 0 (n = 20) % in [3]; 80 (n = 20) % in data set [4]; 0 (n = 20) % in [5]; 65 (n = 20) % in [6]. The “% Animals with gfp induction” value in [7] was 0 (n = 20) %; in data set [8], 0 (n = 20) %; in data set [9] it was 0 (n = 20) %; in data set [10], 0 (n = 20) %; in data set [11], 0 (n = 20) %; in [12], 80 (n = 20) %. Moreover, the “% Animals with gfp induction” value in data set [13], in data set [14], in data set [15], in data set [16], in data set [17] and in [18] was 0 (n = 20) % each time. Moreover, the “% Animals with gfp induction” value is given as 100 (n = 20) % in data set [19], 0 (n = 20) % in data set [20], 100 (n = 20) % in data set [21] and 100 (n = 20) % in the data set on pgp-5::gfp [22]. In the data set with C. elegans [23], the “animals that grew to adulthood” value was more than 40%.
As to `C[C@H](CCC(=O)O)[C@H]1CC[C@H]2[C@@H]3[C@H](O)C[C@@H]4C[C@H](O)CC[C@]4(C)[C@H]3CC[C@]12C` [chenodeoxycholic acid], in the data set on pgp-5::gfp [24], the “rescue of the defect in pgp-5::gfp induction caused by daf-22 or dhs-28 gene inactivations” value was “rescued the defect in induction of pgp-5::gfp”.
With `CC(CCC(=O)NCC(=O)O)C1CCC2C3C(O)CC4CC(O)CCC4(C)C3CCC12C` (stereo not drawn) [glycochenodeoxycholic acid], the “rescue of the defect in pgp-5::gfp induction caused by daf-22 or dhs-28 gene inactivations” value in the data set with pgp-5::gfp [24] was “rescued the defect in induction of pgp-5::gfp”.
In the case of Lactobacillus plantarum, in the data set with C. elegans [25], the “% Animals that reach adulthood” value stood at 0% and the “developmental outcome on the microbe (arrest stage, slow growth, normal)” value was “slow growth”.
